Where only a bound is given, the exact number is not on record here.

This is an account of results in ChEMBL document CHEMBL6127131, “Design, Synthesis, and Biological Evaluation of New Selective PDE4 Inhibitors for Topical Treatment of Psoriasis” (J Med Chem, 2024).

Data set [1] concerns RAW264.7. Kind of data set: Anti-inflammatory activity against LPS induced mouse RAW264.7 cells assessed as reduction in TNFalpha secretion at 10 uM incubated for 24 hrs by ELISA. In kind it is functional. (An ELISA detects its analyte on a solid surface through an enzyme-linked reagent.)
Data set [2] addresses T1, 3',5'-cyclic-AMP phosphodiesterase 4D (Homo sapiens, UniProt Q08499). The data set is described as follows: Inhibition of recombinant full-length PDE4D2 (unknown origin) at 1 uM using FAM-cAMP as substrate preincubated for 15 mins followed by substrate addition and measured after 30 mins by plate reader assay relative to control. The following applies: time 45.0 min.
In data set [3] the target is T1, 3',5'-cyclic-AMP phosphodiesterase 4D. Kind of data set: Inhibition of recombinant full-length PDE4D2 (unknown origin) using FAM-cAMP as substrate preincubated for 15 mins followed by substrate addition and measured after 30 mins by plate reader assay.
Data set [4] is described as follows: Cytotoxicity against mouse RAW264.7 cells incubated for 24 hrs by CCK8 assay. The data set is classed as toxicity, cell-based. A general note: Formazan colour is commonly taken as a measure of viable cells.
The subject of data set [5] is RAW264.7. Kind of data set: Anti-inflammatory activity against LPS induced mouse RAW264.7 cells assessed as reduction in TNFalpha secretion incubated for 24 hrs by ELISA. The data set is classed as functional, cell-based. The following applies: RAW264.7, 24 h.
The next data set relates to HaCaT. The data set is described as follows: Anti-inflammatory activity against M5 induced human HaCaT cells assessed as reduction in TNFalpha secretion incubated for 24 hrs by ELISA. The data set is classed as functional, cell-based.
Data set [6] has as its system RAW264.7. The data set is described as follows: Anti-inflammatory activity against LPS induced mouse RAW264.7 cells assessed as reduction in IL-6 secretion incubated for 24 hrs by ELISA. The data set is classed as functional, cell-based. The following applies: RAW264.7, 24 h.
Data set [7] can be described thus: Cytotoxicity against human HaCaT cells incubated for 24 hrs by CCK8 assay. The data set is classed as toxicity, cell-based.

T1 sequence (Q08499 whole entry): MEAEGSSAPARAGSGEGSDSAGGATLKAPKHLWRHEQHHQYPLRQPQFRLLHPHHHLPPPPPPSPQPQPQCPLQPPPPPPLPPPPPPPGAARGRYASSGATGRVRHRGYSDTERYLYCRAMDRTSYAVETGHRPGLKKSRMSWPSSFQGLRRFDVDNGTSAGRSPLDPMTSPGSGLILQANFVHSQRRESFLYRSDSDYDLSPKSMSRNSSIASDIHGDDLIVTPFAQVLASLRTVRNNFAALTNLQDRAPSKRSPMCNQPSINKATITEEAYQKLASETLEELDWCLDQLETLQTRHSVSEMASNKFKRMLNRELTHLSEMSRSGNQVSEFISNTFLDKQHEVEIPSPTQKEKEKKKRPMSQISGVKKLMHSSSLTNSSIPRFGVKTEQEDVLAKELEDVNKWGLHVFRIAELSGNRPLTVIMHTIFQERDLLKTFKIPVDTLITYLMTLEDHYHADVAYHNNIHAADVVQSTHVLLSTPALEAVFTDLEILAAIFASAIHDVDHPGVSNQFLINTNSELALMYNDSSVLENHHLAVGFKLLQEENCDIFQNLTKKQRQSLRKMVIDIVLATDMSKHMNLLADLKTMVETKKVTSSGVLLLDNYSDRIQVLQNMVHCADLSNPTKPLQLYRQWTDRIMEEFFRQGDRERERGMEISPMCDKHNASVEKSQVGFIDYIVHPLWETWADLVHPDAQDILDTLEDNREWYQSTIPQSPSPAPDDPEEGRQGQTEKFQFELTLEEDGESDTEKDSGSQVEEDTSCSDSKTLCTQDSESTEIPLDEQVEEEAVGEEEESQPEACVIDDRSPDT

Regarding `O=C(NCc1cccnc1)c1cc2nccc(-c3ccc(OC(F)F)c(OCC4CC4)c3)n2n1`, the inhibition (in general, the relative decrease from the control value, in per cent) at 10 µM in the data set on RAW264.7 [1] was 6.6%. In addition, the inhibition in data set [2] was 49.3%. In the same order, the values of `O=C(Nc1nccs1)c1csc(-c2ccc(OC(F)F)c(OCC3CC3)c2)n1` are 14.6% and 64.8%.

On to `O=C(Nc1ccc2ncsc2c1)c1cnn2c(-c3ccc(OC(F)F)c(OCC4CC4)c3)ccnc12`, for which the inhibition in data set [2] is under 73.1%. In the case of `O=C(NCc1cc(F)ccc1F)c1cc2nccc(-c3ccc(OC(F)F)c(OCC4CC4)c3)n2n1`, the inhibition at 10 µM in the data set on RAW264.7 [1] is 16.3%. The inhibition in data set [2] was found to be 42.6%. Taken in the same sequence, the figures for `O=C(NCc1ncccn1)c1cc2nccc(-c3ccc(OC(F)F)c(OCC4CC4)c3)n2n1` were 25.1% and 70.7%. Taken in the same sequence, the figures for `O=C(NCc1ccc2ccccc2c1)c1cc2nccc(-c3ccc(OC(F)F)c(OCC4CC4)c3)n2n1` were 12.4% and 38.3%. `O=C(NC1CCCCC1)c1cnn2c(-c3ccc(OC(F)F)c(OCC4CC4)c3)ccnc12`: the inhibition in data set [2] was under 73.1%. The same measure, in the same setting: then `O=C(NCc1c(F)cccc1F)c1cnn2c(-c3ccc(OC(F)F)c(OCC4CC4)c3)ccnc12`, with under 73.1%; and `O=C(Nc1ccncc1)c1cnn2c(-c3ccc(OC(F)F)c(OCC4CC4)c3)ccnc12`, with under 73.1%. As for `Cn1cc(NC(=O)c2cc3nccc(-c4ccc(OC(F)F)c(OCC5CC5)c4)n3n2)cn1`, in the data set on RAW264.7 [1], the inhibition at 10 µM turned out to be 15.4%. In addition, in data set [2], the inhibition came out at 46.7%. Taken in the same sequence, the figures for `O=C(Nc1nccs1)c1cc2nccc(-c3ccc(OC(F)F)c(OCC4CC4)c3)n2n1` were 25.8% and 86.1%.

`O=C(NCc1c(F)cccc1F)c1cc2nccc(-c3ccc(OC(F)F)c(OCC4CC4)c3)n2n1`: in the data set with RAW264.7 [1], the inhibition at 10 µM is 27.9%. Moreover, the inhibition in data set [2] amounted to 41.9%. Regarding `O=C(Nc1nccs1)c1cnn2c(-c3ccc(OC(F)F)c(OCC4CC4)c3)ccnc12`, the inhibition in data set [2] is under 73.1%. Regarding `O=C(Nc1nc2ccccc2s1)c1csc(-c2ccc(OC(F)F)c(OCC3CC3)c2)n1`, the inhibition at 10 µM in the data set on RAW264.7 [1] worked out at 21.7%. Also, the inhibition in data set [2] worked out at 75.3%. With `O=C(NCc1ccc2ccccc2c1)c1cnn2c(-c3ccc(OC(F)F)c(OCC4CC4)c3)ccnc12`, the inhibition in data set [2] was under 73.1%. Regarding `O=C(NCc1c(F)cccc1F)c1csc(-c2ccc(OC(F)F)c(OCC3CC3)c2)n1`, the IC50 – broadly, the concentration that gives 50% inhibition – was 0.00936 µM in data set [3], 48.4 µM in the data set on RAW264.7 [5], 22.6 µM in the data set with HaCaT and 57 µM in the data set on RAW264.7 [6]. The CC50 at 24 h in data set [4] and in data set [7] was over 50 µM each time. Turning to `O=C(Nc1ccc2cc[nH]c2c1)c1cnn2c(-c3ccc(OC(F)F)c(OCC4CC4)c3)ccnc12`, the inhibition in data set [2] is under 73.1%.

In the case of `O=C(NCc1ccc(F)cc1F)c1csc(-c2ccc(OC(F)F)c(OCC3CC3)c2)n1`, the inhibition at 10 µM in the data set with RAW264.7 [1] came out at 17.6%. Also, in data set [2], the inhibition came out at 79.1%.

Regarding `O=C(O)c1csc(-c2ccc(OC(F)F)c(OCC3CC3)c2)n1`, the inhibition at 10 µM in the data set on RAW264.7 [1] was 22.9%. In addition, the inhibition in data set [2] turned out to be 78.5%. For `O=C(NCc1cc(F)ccc1F)c1cnn2c(-c3ccc(OC(F)F)c(OCC4CC4)c3)ccnc12`, the inhibition in data set [2] is under 73.1%. Turning to `O=C(Nc1ccccc1)c1cc2nccc(-c3ccc(OC(F)F)c(OCC4CC4)c3)n2n1`, the inhibition at 10 µM in the data set on RAW264.7 [1] was found to be 16.5%. Further, the inhibition in data set [2] was determined as 89.2%. `O=C(NCc1ccc(F)cc1F)c1cnn2c(-c3ccc(OC(F)F)c(OCC4CC4)c3)ccnc12`: in data set [2], the inhibition was under 73.1%.

Take `O=C(NCC1CCOCC1)c1cc2nccc(-c3ccc(OC(F)F)c(OCC4CC4)c3)n2n1`: the inhibition at 10 µM with RAW264.7 [1] stood at 38.6%. For the same compound, the inhibition in data set [2] turned out to be 62.7%. `CCC(CC)NC(=O)c1cnn2c(-c3ccc(OC(F)F)c(OCC4CC4)c3)ccnc12`: in data set [2], the inhibition was under 73.1%. The same measure, in the same setting: then `O=C(NCc1cccnc1)c1cnn2c(-c3ccc(OC(F)F)c(OCC4CC4)c3)ccnc12`, with under 73.1%.

For the compound `O=C(NCc1ccc(F)cc1F)c1cc2nccc(-c3ccc(OC(F)F)c(OCC4CC4)c3)n2n1`, in the data set with RAW264.7 [1], the inhibition at 10 µM was found to be 13.6%. Besides, the concentration for half-maximal inhibition (IC50) in data set [3] was determined as 0.558 µM. Take `O=C(NCc1cccc(F)c1F)c1cc2nccc(-c3ccc(OC(F)F)c(OCC4CC4)c3)n2n1`: in the data set on RAW264.7 [1], the inhibition at 10 µM stood at 13.7%. In addition, the inhibition in data set [2] amounted to 64.6%. In the case of `CC(C)CNC(=O)c1cnn2c(-c3ccc(OC(F)F)c(OCC4CC4)c3)ccnc12`, in data set [2], the inhibition is under 73.1%. In the case of `O=C(NCc1c(F)cc(F)cc1F)c1cc2nccc(-c3ccc(OC(F)F)c(OCC4CC4)c3)n2n1`, the inhibition at 10 µM in the data set with RAW264.7 [1] was determined as 23.3%. The inhibition in data set [2] was determined as 38.4%. In the same order, the values of `O=C(NCc1ccc2ccccc2c1)c1csc(-c2ccc(OC(F)F)c(OCC3CC3)c2)n1` are 14% and 78%. On to `O=C(NCc1c(F)cc(F)cc1F)c1csc(-c2ccc(OC(F)F)c(OCC3CC3)c2)n1`, for which the inhibition at 10 µM with RAW264.7 [1] was found to be 34%. Further, in data set [3], the 50% inhibitory concentration (IC50) turned out to be 0.0257 µM. On to `O=C(NCC1CCOCC1)c1cnn2c(-c3ccc(OC(F)F)c(OCC4CC4)c3)ccnc12`, for which the inhibition in data set [2] was under 73.1%. The same measure, in the same setting: then `COc1ccc(CNC(=O)c2cnn3c(-c4ccc(OC(F)F)c(OCC5CC5)c4)ccnc23)cn1`, with under 73.1%. On to `O=C(NCc1cccc(F)c1F)c1csc(-c2ccc(OC(F)F)c(OCC3CC3)c2)n1`, for which the inhibition at 10 µM in the data set on RAW264.7 [1] stood at 24.8%. The IC50 in data set [3] came out at 0.025 µM. As for `CC(C)(C)CNC(=O)c1cnn2c(-c3ccc(OC(F)F)c(OCC4CC4)c3)ccnc12`, the inhibition in data set [2] was under 73.1%.

In the case of `Cn1cc(NC(=O)c2cnn3c(-c4ccc(OC(F)F)c(OCC5CC5)c4)ccnc23)cn1`, the inhibition in data set [2] was under 73.1%. Same read-out and setting: then `O=C(NC1CC1)c1cnn2c(-c3ccc(OC(F)F)c(OCC4CC4)c3)ccnc12`, with under 73.1%. The same measure, in the same setting: for `O=C(NCc1cccc(F)c1F)c1cnn2c(-c3ccc(OC(F)F)c(OCC4CC4)c3)ccnc12` the value was under 73.1%; for `O=C(Nc1ccccc1)c1cnn2c(-c3ccc(OC(F)F)c(OCC4CC4)c3)ccnc12`, under 73.1%. On the same count and under the same terms, then `O=C(NCc1c(F)cc(F)cc1F)c1cnn2c(-c3ccc(OC(F)F)c(OCC4CC4)c3)ccnc12`, with under 73.1%. On to `O=C(Nc1ccncc1)c1csc(-c2ccc(OC(F)F)c(OCC3CC3)c2)n1`, for which the inhibition at 10 µM with RAW264.7 [1] came out at 25.6%. The IC50 in data set [3] stood at 0.0772 µM.

As to `O=C(NCc1ccccc1)c1csc(-c2ccc(OC(F)F)c(OCC3CC3)c2)n1`, the inhibition at 10 µM in the data set with RAW264.7 [1] amounted to 29%. Also, the concentration for half-maximal inhibition (IC50) in data set [3] was determined as 0.0259 µM. `O=C(Nc1ccccc1)c1csc(-c2ccc(OC(F)F)c(OCC3CC3)c2)n1`: the inhibition at 10 µM in the data set on RAW264.7 [1] was 26.5%. Moreover, the inhibition in data set [2] was found to be 72.4%. Turning to `O=C(NCc1ccccc1)c1cc2nccc(-c3ccc(OC(F)F)c(OCC4CC4)c3)n2n1`, the inhibition at 10 µM in the data set with RAW264.7 [1] came out at 19.6%. Besides, in data set [3], the IC50 worked out at 0.546 µM. Consider `O=C(NCc1ccccc1)c1cnn2c(-c3ccc(OC(F)F)c(OCC4CC4)c3)ccnc12`, for which the inhibition in data set [2] is under 73.1%.
